Values joined by “and” are separate entries in the source; they are usually repeats but may differ in a detail not shown here. Identical values can stand only once.
Key:
[1] = target: T1, PDE_XIV (Homo sapiens, UniProt Q9NP56); assay: Phosphodiesterase inhibition studies on purified expressed PDE_XIV (cAMP SPA); assay type: biochemical; settings: for IC50: N = 2, read-out: IC50 FOR PDEXIV (μM) (N = 2)
T1 construct: made in house; host or cells: Sf9 insect cells (baculovirus, pFASTBAC-FLAG)
Description: This allows the specific retention on the column of the recombinant material (since this is fused to the FLAG epitope) whilst the endogenous insect proteins are washed off in the eluate. The recombinant material is then washed off under conditions of low pH. […] The purity of the material is assessed by coomassie staining after sodium dodecyl sulphate-polyacrylamide gel electrophoresis (SDS-PAGE) or through western blotting onto a nitro-cellulose membrane of an unstained SDS-PAGE (containing recombinant PDE) and analysis with the IgG1 monoclonal anti-FLAG epitope antibody. The PDE-FLAG fusion protein is detected due to the interaction between the anti-FLAG antibody and the FLAG epitope which is fused to the PDE protein. The phosphodiesterase activity of the purified PDE-FLAG fusion protein was assayed using a commercially available SPA (scintillation proximity assay) kit (Amersham-Amersham place, Little Chalfont, Bucks, HP7 9NA UK) for either cAMP and/or cGMP hydrolytic activity.

[2] = target: T1, PDE_XIV; assay: cAMP Scintillation Proximity Assays on purified expressed PDE_XIV (substrate hydrolysis); assay type: biochemical

T1 sequence (Q9NP56 whole entry): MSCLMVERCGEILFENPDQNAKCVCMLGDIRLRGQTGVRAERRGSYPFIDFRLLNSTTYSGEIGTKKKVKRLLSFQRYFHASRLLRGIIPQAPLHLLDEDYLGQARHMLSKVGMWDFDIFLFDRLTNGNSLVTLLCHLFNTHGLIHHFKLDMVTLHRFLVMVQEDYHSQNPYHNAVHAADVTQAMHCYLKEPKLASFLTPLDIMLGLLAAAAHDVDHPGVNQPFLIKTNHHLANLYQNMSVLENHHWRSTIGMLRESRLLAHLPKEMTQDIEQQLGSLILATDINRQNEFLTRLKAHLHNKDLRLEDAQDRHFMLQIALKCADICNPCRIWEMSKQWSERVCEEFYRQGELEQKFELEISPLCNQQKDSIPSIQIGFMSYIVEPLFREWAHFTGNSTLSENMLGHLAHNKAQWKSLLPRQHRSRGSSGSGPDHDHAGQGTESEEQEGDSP

sensitivity of PDE_XIV to the PDE inhibitor [1] | IC50 [1] | activity of PDE_XIV against the cyclic nucleotide [2] | Compound
not to be sensitive | > 30 µM | – | COc1ccc([C@]2(C#N)CC[C@@H](C(=O)O)CC2)cc1OC1CCCC1 [Ariflo]
– | 10.7 µM | – | OCCN(CCO)c1nc(N2CCCCC2)c2nc(N(CCO)CCO)nc(N3CCCCC3)c2n1 [Dipyridamole]
– | – | no activity | Nc1nc2c(ncn2[C@@H]2O[C@@H]3COP(=O)(O)O[C@H]3[C@H]2O)c(=O)[nH]1 [cGMP]
not to be sensitive | > 30 µM | – | COc1ccc(C2CNC(=O)C2)cc1OC1CCCC1 (stereo not drawn) [Rolipram]
– | 9.32 µM and 9.72 µM | – | CC(C)Cn1c(=O)n(C)c(=O)c2[nH]cnc21 [IBMX]

Compound | sensitivity of PDE_XIV to the PDE inhibitor [1] | IC50 [1] | activity of PDE_XIV against the cyclic nucleotide [2]
Cc1[nH]c(=O)c(C#N)cc1-c1ccncc1 [Milrinone] | not to be sensitive | > 30 µM | –

— US7091024B2, “Enzyme PDE XVI” (Pfizer Inc., priority 1999, dated 2006)
